The values below come from patent US11236084B2, “Substituted azaindoline derivatives as NIK inhibitors” (Janssen Pharmaceutica NV, priority 2017, dated 2022).

The target of assay [1] is T1, recombinant human NF-kappaB-inducing kinase (NIK/MAP3K14) (Homo sapiens, UniProt Q99558). The assay is described as follows: Biological Assay A: inhibition of recombinant human NF-kappaB-inducing kinase (NIK/MAP3K14) activity (MBP phosphorylation, Mesoscale). As to conditions: MSD MBP; averaged over all measurements on all batches; read-out: Assay A Biochemical (MSD MBP) IC50. The protocol: Pharmacological Part Biological Assay A Inhibition of Recombinant Human NF-kappaB-Inducing Kinase (NIK/MAP3K14) Activity
T1 sequence (Q99558 whole entry): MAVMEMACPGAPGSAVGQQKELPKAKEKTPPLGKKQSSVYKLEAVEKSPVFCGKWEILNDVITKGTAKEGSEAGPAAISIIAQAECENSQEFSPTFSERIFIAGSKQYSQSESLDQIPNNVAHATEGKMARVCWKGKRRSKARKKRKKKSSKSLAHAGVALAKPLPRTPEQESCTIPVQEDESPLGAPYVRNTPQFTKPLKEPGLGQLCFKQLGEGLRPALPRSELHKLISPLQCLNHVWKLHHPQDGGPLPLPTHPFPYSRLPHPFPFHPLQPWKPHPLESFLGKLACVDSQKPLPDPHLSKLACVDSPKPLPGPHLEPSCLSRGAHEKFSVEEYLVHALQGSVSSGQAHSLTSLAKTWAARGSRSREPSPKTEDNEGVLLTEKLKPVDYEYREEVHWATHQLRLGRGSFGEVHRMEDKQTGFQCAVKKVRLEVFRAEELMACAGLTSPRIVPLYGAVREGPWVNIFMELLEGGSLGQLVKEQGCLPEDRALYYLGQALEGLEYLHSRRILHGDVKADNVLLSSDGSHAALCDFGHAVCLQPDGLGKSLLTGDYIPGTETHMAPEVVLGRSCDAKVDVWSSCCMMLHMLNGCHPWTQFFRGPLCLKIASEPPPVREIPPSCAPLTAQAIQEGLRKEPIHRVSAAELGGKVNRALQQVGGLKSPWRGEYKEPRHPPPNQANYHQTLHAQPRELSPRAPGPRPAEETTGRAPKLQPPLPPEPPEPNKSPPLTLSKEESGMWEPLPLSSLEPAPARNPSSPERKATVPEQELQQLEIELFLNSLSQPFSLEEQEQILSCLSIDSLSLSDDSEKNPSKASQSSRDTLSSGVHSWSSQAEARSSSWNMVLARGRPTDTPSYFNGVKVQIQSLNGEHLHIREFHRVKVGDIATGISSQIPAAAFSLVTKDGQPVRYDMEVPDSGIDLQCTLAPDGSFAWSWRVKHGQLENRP
Assay buffer was 50 mM Tris pH 7.5 containing 1 mM EGTA (ethylene glycol tetraacetic acid), 1 mM DTT (dithiothreitol), 0.1 mM Na3VO4, 5 mM MgCl2, 0.01% Tween® 20. Assays were carried out in 384 well Mesoscale high binding plates which had been coated with myelin basic protein (MBP) and blocked with bovine serum albumin to prevent non-specific protein binding. All compounds tested were dissolved in dimethyl sulfoxide (DMSO) and further dilutions were made in assay buffer. Final DMSO concentration was 1% (v/v) in assays. Incubations consisted of compound (1% DMSO in control and blank wells), 25 μM […] (ATP), and 10 nM NIK/MAP3K14 substituting enzyme with buffer in the blank wells. Incubations were carried out for 1 h at 25° C. and were followed by washing and sequential incubation with rabbit anti-phospho-MBP and anti-rabbit Ig Sulfotag antibody before reading bound Sulfotag on a Mesoscale Discovery. Signal obtained in the wells containing blank samples was subtracted from all other wells and […] were determined by fitting a sigmoidal curve to % inhibition of control versus Log10 compound concentration.
(§1) Data for the compounds of the invention in the above assays are provided in Table A (the values in Table are averaged values over all measurements on all batches of a compound; values as IC50 (nM)). (‘n.c.’ means not calculated: ‘Co.’ means compound)

The test system of assay [2] is P-IKKα levels in L363 (NIK translocated multiple myeloma) cells. The assay is described as follows: Biological Assay C: effect of compounds on P-IKKα levels in L363 (NIK translocated multiple myeloma) cells, performed at 2 locations. As to conditions: Homo sapiens, L-363, location 2; L363 cells, P-IKKα levels; averaged values; read-out: Assay C location 2 IC50. It counts as cell-based, human. On the procedure: Effect of Compounds on P-IKKα Levels in L363 (NIK Translocated Multiple Myeloma) Cells
All compounds tested were dissolved in DMSO and further dilutions were made in culture medium. Final DMSO concentration was 1% (v/v) in cell assays. The human L363 cells (ATCC) were cultured in RPMI 1640 medium supplemented with GlutaMax and 10% fetal calf serum (PAA). Cells were routinely maintained at densities of 0.2×10^6 cells per ml-1×10^6 cells per ml at 37° C. in a humidified 5% CO2 atmosphere. Cells were passaged twice a week splitting back to obtain the low density. Cells were seeded in 96 well plates (Nunc 167008) at 2×10^6 per ml media in a volume of 75 μl per well plus 25 μl […] recombinant human B-cell activating factor (BAFF/BLyS/TNFSF13B). Seeded cells were incubated at 37° C. in a humidified 5% CO2 atmosphere for 24 hr. Drugs and/or solvents were added (20 μl) to a final volume of 120 μl. Following 2 hr treatment plates were removed from the incubator and cell lysis was achieved by the addition of 30 μl 5× lysis buffer followed by shaking on a plate shaker at 4° C. for 10 min. At the end of this incubation lysed cells were centrifuged at 800×g for 20 min at 4° C. and the lysate was assessed for P-IKKα levels by sandwich immuno-assay carried out in anti-rabbit antibody coated Mesoscale plates. Within an experiment, the results for each treatment were the mean of 2 replicate wells. For initial screening purposes, compounds were tested using an 8 point dilution curve (serial 1:3 dilutions). For each experiment, controls (containing MG132 and BAFF but no test drug) and a blank incubation (containing MG132 and BAFF and 1 μM ADS125117, a test concentration known to give full inhibition) were run in parallel. The blank incubation value was subtracted from all control and sample values. To determine the IC50 a sigmoidal curve was fitted to the plot of % inhibition of control P-IKKα levels versus Log10 compound concentration.
Assay C was performed at 2 different locations.
as §1

Assay [3] addresses T1, recombinant human NF-kappaB-inducing kinase (NIK/MAP3K14). The assay is described as follows: Biological Assay B: inhibition of auto-phosphorylation of recombinant human NIK/MAP3K14 (AlphaScreen), performed at 2 locations. It counts as biochemical. As to conditions: location 1; AlphaScreen auto-phosphorylation; averaged values; read-out: Assay B location 1 IC50. The essentials:
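Run at two separate sites: 1 h, 25° C. reactions containing 0.2 nM GST-NIK, 25 microM ATP and compound (1% DMSO) in Tris pH 7.5/MgCl2 buffer. Phosphorylation detected via anti-phospho-IKK Ser176/180 antibody with AlphaScreen beads; IC50 fitted to % inhibition.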
For orientation: Bead proximity is the source of the signal in Alpha formats.

By IC50 is commonly meant the midpoint of a concentration-inhibition curve. In the case of `COc1cc(Nc2nccc(-c3cnc4c(c3)C(C)(C)CN4)n2)c(C)c(C(=O)NC2CN(C)C2)c1` [Compound 51], the half-maximal inhibitory concentration (IC50) worked out at 6.9 nM in assay [1] and 112 nM in assay [2].
With `Cc1cc(C(=O)N2CCC(CCO)CC2)ccc1Nc1nccc(-c2cnc3c(c2)C(C)(C)CN3)n1` [Compound 53], the figures for the concentration for half-maximal inhibition (IC50) in assay [1] and in assay [2] were 4.1 nM and 174 nM, respectively.
In the same order, the values of `CC(=O)NCc1ccc(Nc2nccc(-c3cnc4c(c3)C(C)(C)CN4)n2)c(Br)c1` [Compound 63] are 8.3 nM and 75.9 nM.
In the same order, the values of `CCC(=O)NCc1cccc(Nc2nccc(-c3cnc4c(c3)C(C)(C)CN4)n2)c1C` [Compound 64] are 13.5 nM and 407 nM.
Taken in the same sequence, the figures for `Cc1c(CNC(=O)C(C)C)cccc1Nc1nccc(-c2cnc3c(c2)C(C)(C)CN3)n1` [Compound 65] were 24 nM and 617 nM.
Regarding `COCC(=O)NCc1cccc(Nc2nccc(-c3cnc4c(c3)C(C)(C)CN4)n2)c1C` [Compound 66], the IC50 in assay [1] is 10.7 nM; in assay [2] it was 363 nM.
Turning to `CC(=O)NCc1ccc(Nc2nccc(-c3cnc4c(c3)C(C)(C)CN4)n2)c(C(F)(F)F)c1` [Compound 67], the results for the 50% inhibitory concentration (IC50) in assay [1] and in assay [2] were 45.7 nM and 1660 nM, respectively.
Taken in the same sequence, the figures for `CC(=O)NCc1ccc(Nc2nccc(-c3cnc4c(c3)C(C)(C)CN4)n2)c(Cl)c1` [Compound 72] were 6.5 nM and 53.7 nM.
In the same order, the values of `CCC(=O)NCc1ccc(Nc2nccc(-c3cnc4c(c3)C(C)(C)CN4)n2)c(C)c1` [Compound 74] are 6.8 nM and 67.6 nM.
Taken in the same sequence, the figures for `Cc1cc(CNC(=O)C(C)C)ccc1Nc1nccc(-c2cnc3c(c2)C(C)(C)CN3)n1` [Compound 75] were 12.3 nM and 135 nM.
Take `COCC(=O)NCc1ccc(Nc2nccc(-c3cnc4c(c3)C(C)(C)CN4)n2)c(C)c1` [Compound 76]: the 50% inhibitory concentration (IC50) in assay [1] was 13.5 nM; in assay [2] it was 182 nM.
On to `CC(=O)NCc1ccc(Nc2nccc(-c3cnc4c(c3)C(C)(C)CN4)n2)c(OC(F)(F)F)c1` [Compound 77], for which the 50% inhibitory concentration (IC50) stood at 56.2 nM in assay [1] and 126 nM in assay [2].
In the same order, the values of `Cc1cc(C(=O)N2CCOCC2)ccc1Nc1nccc(-c2cnc3c(c2)C(C)(C)CN3)n1` [Compound 78] are 16.6 nM and above 10000 nM.
Taken in the same sequence, the figures for `Cc1cc(C(=O)N2CC(C)(O)C2)ccc1Nc1nccc(-c2cnc3c(c2)C(C)(C)CN3)n1` [Compound 80] were 39.8 nM and 646 nM.
Taken in the same sequence, the figures for `CC(=O)NCc1ccc(Nc2nccc(-c3cnc4c(c3)C(C)(C)CN4)n2)c(F)c1` [Compound 83] were 35.5 nM and 2690 nM.
`CN1CCC(NC(=O)c2ccc(Nc3nccc(-c4cnc5c(c4)C(C)(C)CN5)n3)c(C(F)(F)F)c2)CC1` [Compound 91]: the half-maximal inhibitory concentration (IC50) was 339 nM in assay [1] and above 10000 nM in assay [2].
Taken in the same sequence, the figures for `CC1(C)CNc2ncc(-c3ccnc(Nc4ccc(C(=O)NC5CCOCC5)cc4C(F)(F)F)n3)cc21` [Compound 94] were 347 nM and around 10000 nM.
For the molecule `CC(=O)NC(C)c1cccc(Nc2nccc(-c3cnc4c(c3)C(C)(C)CN4)n2)c1` (stereo not shown) [Compound 96], the half-inhibitory concentration (IC50) in assay [1] was 13.5 nM; in assay [2] it was around 6310 nM.
Regarding `Cc1cc(C(=O)O)ccc1Nc1nccc(-c2cnc3c(c2)C(C)(C)CN3)n1` [Compound 97], the 50% inhibitory concentration (IC50) is above 10000 nM in assay [3] and around 501 nM in assay [1].
For the molecule `Cc1cc(C(=O)N2CCC(C(C)(C)O)CC2)ccc1Nc1nccc(-c2cnc3c(c2)C(C)(C)CN3)n1` [Compound 98], the IC50 in assay [1] came to 13.5 nM; in assay [2], 93.3 nM.
Taken in the same sequence, the figures for `Cc1cc(C(=O)N2CCC(C#N)CC2)ccc1Nc1nccc(-c2cnc3c(c2)C(C)(C)CN3)n1` [Compound 99] were 7.4 nM and 144 nM.
Taken in the same sequence, the figures for `Cc1cc(C(=O)N2CCS(=O)(=O)CC2)ccc1Nc1nccc(-c2cnc3c(c2)C(C)(C)CN3)n1` [Compound 100] were 6.6 nM and 174 nM.
As to `CN1CCC(NC(=O)c2ccc(Nc3nccc(-c4cnc5c(c4)C(C)(C)CN5)n3)c(Cl)c2)CC1` [Compound 103], the IC50 in assay [1] is 155 nM; in assay [2] it was 3090 nM.
Taken in the same sequence, the figures for `CC1(C)CNc2ncc(-c3ccnc(Nc4ccc(C(=O)NC5CCOCC5)cc4Cl)n3)cc21` [Compound 104] were 61.7 nM and 398 nM.
On to `COc1cc(Nc2nccc(-c3cnc4c(c3)C(C)(C)CN4)n2)c(C)c(C(=O)NC2CCOCC2)c1` [Compound 105], for which the half-maximal inhibitory concentration (IC50) in assay [1] is 30.2 nM; in assay [2], 436 nM.
Taken in the same sequence, the figures for `COCCNC(=O)c1cc(OC)cc(Nc2nccc(-c3cnc4c(c3)C(C)(C)CN4)n2)c1C` [Compound 106] were 15.9 nM and 95.5 nM.
Take `COc1cc(Nc2nccc(-c3cnc4c(c3)C(C)(C)CN4)n2)c(C)c(C(=O)N2CCC(O)CC2)c1` [Compound 107]: the 50% inhibitory concentration (IC50) in assay [1] was 13.5 nM; in assay [2] it was 72.4 nM.
In the same order, the values of `COc1cc(Nc2nccc(-c3cnc4c(c3)C(C)(C)CN4)n2)c(C)c(C(=O)N2CCOCC2)c1` [Compound 108] are 15.1 nM and 102 nM.
Taken in the same sequence, the figures for `CC1(C)CNc2ncc(-c3ccnc(Nc4ccc(C(=O)NC5CCOCC5)cc4C(F)F)n3)cc21` [Compound 110] were 129 nM and 2340 nM.
With `COc1c(Nc2nccc(-c3cnc4c(c3)C(C)(C)CN4)n2)cccc1C(=O)N1CCOCC1` [Compound 112], the IC50 in assay [1] was 417 nM.
Still for that read-out and setting: as for `COc1c(Nc2nccc(-c3cnc4c(c3)C(C)(C)CN4)n2)cccc1C(=O)NC1CCOCC1` [Compound 113], the figure is 288 nM.
For the molecule `COc1c(Nc2nccc(-c3cnc4c(c3)C(C)(C)CN4)n2)cccc1C(=O)N1CCC(O)CC1` [Compound 114], the results for the IC50 in assay [1] and in assay [2] were 251 nM and above 10000 nM, respectively.
For the molecule `Cc1cc(C#N)ccc1Nc1nccc(-c2cnc3c(c2)C(C)(C)CN3)n1` [Compound 115], the IC50 in assay [1] is 457 nM.
`COc1cc(C#N)ccc1Nc1nccc(-c2cnc3c(c2)C(C)(C)CN3)n1` [Compound 116]: the half-inhibitory concentration (IC50) in assay [1] was found to be 309 nM; in assay [2] it was 3160 nM.
Taken in the same sequence, the figures for `Cc1cc(N2CCOCC2)ccc1Nc1nccc(-c2cnc3c(c2)C(C)(C)CN3)n1` [Compound 117] were 162 nM and above 10000 nM.
As to `COc1ccc(S(C)(=O)=O)cc1Nc1nccc(-c2cnc3c(c2)C(C)(C)CN3)n1` [Compound 119], the results for the IC50 in assay [1] and in assay [2] were 295 nM and 5500 nM, respectively.
In the same order, the values of `Cc1cc(C(=O)NC2CCOCC2)ccc1Nc1nccc(-c2cnc3c(c2)C(C)(CCO)CN3)n1` (stereo not shown) [Compound 124] are 7.8 nM and 2750 nM.
In the case of `CC1(C)CNc2ncc(-c3ccnc(Nc4ccc(C(=O)N5CCC(C#N)CC5)cc4OC(F)F)n3)cc21` [Compound 128], the results for the IC50 in assay [1] and in assay [2] were 7.9 nM and 191 nM, respectively.
Taken in the same sequence, the figures for `COC1CCN(C(=O)c2ccc(Nc3nccc(-c4cnc5c(c4)C(C)(C)CN5)n3)c(OC(F)F)c2)CC1` [Compound 129] were 15.9 nM and 229 nM.
In the case of `COc1ccc(C)c(Nc2nccc(-c3cnc4c(c3)C(C)(C)CN4)n2)c1CNC(C)=O` [Compound 135], in assay [1], the IC50 is above 10000 nM.
